Source: paper PMC6753144, “Exploiting biofilm phenotypes for functional characterization of hypothetical genes in Enterococcus faecalis” (NPJ Biofilms and Microbiomes, 2019)

Target: T1, Bph-H6 (Bph, OG1RF_10435, biofilm phosphatase) (Enterococcus faecalis, UniProt A0ACD6T9Q6)
T1 construct: full length, 177 residues, C-terminal His6 tag (pET28b+, NcoI/XhoI), expressed in E. coli BL21(DE3), Ni-NTA purified
Assay: malachite green phosphate release assay
Type: biochemical
Conditions: 10 mM Mn2+, pH 7.5, 37 °C, 1 h, 1 µM enzyme, 100 µM substrate

T1 sequence (A0ACD6T9Q6 entry or part of it): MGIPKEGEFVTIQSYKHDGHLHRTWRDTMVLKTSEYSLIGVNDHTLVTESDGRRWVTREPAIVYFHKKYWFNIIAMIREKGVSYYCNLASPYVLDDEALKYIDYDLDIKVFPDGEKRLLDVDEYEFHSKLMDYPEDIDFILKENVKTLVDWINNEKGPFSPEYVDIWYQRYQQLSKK

## Nc1ncnc2c1ncn2[C@@H]1O[C@H](COP(=O)(O)OP(=O)(O)OP(=O)(O)O)[C@@H](O)[C@H]1O [ATP]
  malachite green phosphate release assay: Bph-H6 had in vitro phosphatase activity on nucleoside triphosphate, nucleoside diphosphate, and deoxynucleoside phosphate substrates

## Nc1nc2c(ncn2[C@@H]2O[C@H](COP(=O)(O)OP(=O)(O)O)[C@@H](OP(=O)(O)OP(=O)(O)O)[C@H]2O)c(=O)[nH]1 [ppGpp]
  malachite green phosphate release assay: We also detected phosphatase activity against ppGpp, the second messenger
